# Reference: article PMC5454391, “Improving 10-deacetylbaccatin III-10-β-O-acetyltransferase catalytic fitness for Taxol production” (Nature Communications, 2017)
# Numbering of substitutions follows the chain as printed.
# Key:
# Assay type in all cases: biochemical
# [1] = molecular target: T1, DBAT of T. wallichiana var. (Taxus mairei, UniProt B5KRG1); experiment: HPLC of Taxol formed; details: 500 μM acetyl-CoA, 50 mM sodium acetate pH 5.5, […], 180 min
# T1 sequence (B5KRG1 1-440): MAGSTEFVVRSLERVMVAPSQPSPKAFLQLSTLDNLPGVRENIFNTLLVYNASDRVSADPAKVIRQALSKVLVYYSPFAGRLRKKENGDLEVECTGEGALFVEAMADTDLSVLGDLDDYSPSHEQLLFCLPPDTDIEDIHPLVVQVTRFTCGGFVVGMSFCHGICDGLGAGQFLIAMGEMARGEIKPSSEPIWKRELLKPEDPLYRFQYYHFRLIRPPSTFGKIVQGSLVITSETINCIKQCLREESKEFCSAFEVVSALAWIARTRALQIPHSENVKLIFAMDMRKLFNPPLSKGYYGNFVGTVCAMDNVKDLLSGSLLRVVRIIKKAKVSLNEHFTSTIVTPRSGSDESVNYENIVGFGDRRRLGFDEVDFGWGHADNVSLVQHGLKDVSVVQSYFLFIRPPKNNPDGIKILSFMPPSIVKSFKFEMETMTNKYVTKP
# DBAT of T. canadensis [2] = molecular target: T2, DBAT of T. canadensis (Taxus canadensis, UniProt B5KRF5); experiment: HPLC of Taxol formed; details: 500 μM acetyl-CoA, 50 mM sodium acetate pH 5.5, […], 180 min
# T2 sequence (B5KRF5 1-440): T1 sequence (B5KRG1 1-440) with V9L, H123L, M158V, S228F, S294L, V352I, V422M
# DBAT of T. x media [3] = molecular target: T3, DBAT of T. x media (Taxus x media, UniProt Q6SQJ5); experiment: HPLC of Taxol formed; details: 500 μM acetyl-CoA, 50 mM sodium acetate pH 5.5, […], 180 min
# T3 sequence (Q6SQJ5 1-440): T1 sequence (B5KRG1 1-440) with A58V, H123L, M158V, R213Q, R216C, V352I
# DBAT of T. brevifolia = molecular target: T4, DBAT of T. brevifolia (Taxus brevifolia, UniProt B5KRG4); experiment: HPLC of Taxol formed; details: 500 μM acetyl-CoA, 50 mM sodium acetate pH 5.5, […], 180 min
# T4 sequence (B5KRG4 1-440): T1 sequence (B5KRG1 1-440) with A52T, H123L, M158V, R216H, S219T, V352M, L383I, S415L, M417L
# DBAT of T. x media [4] = molecular target: T3, DBAT of T. x media; experiment: HPLC of baccatin III formed; details: 500 μM acetyl-CoA, 50 mM sodium acetate pH 5.5, 40 °C, 20 min
# DBAT of T. canadensis [5] = molecular target: T2, DBAT of T. canadensis; experiment: HPLC of baccatin III formed; details: 500 μM acetyl-CoA, 50 mM sodium acetate pH 5.5, 40 °C, 20 min
# [6] = molecular target: T1, DBAT of T. wallichiana var.; experiment: HPLC of baccatin III formed; details: 500 μM acetyl-CoA, 50 mM sodium acetate pH 5.5, 40 °C, 20 min
Compound,HPLC of Taxol formed [1],HPLC of Taxol formed (DBAT of T. canadensis [2]),HPLC of Taxol formed (DBAT of T. x media [3]),HPLC of Taxol formed (DBAT of T. brevifolia),HPLC of baccatin III formed (DBAT of T. x media [4]),HPLC of baccatin III formed (DBAT of T. canadensis [5]),HPLC of baccatin III formed [6]
"CC(=O)O[C@@]12CO[C@@H]1C[C@H](O)[C@@]1(C)C(=O)[C@H](O)C3=C(C)[C@@H](OC(=O)[C@H](O)[C@@H](NC(=O)c4ccccc4)c4ccccc4)C[C@@](O)([C@@H](OC(=O)c4ccccc4)[C@H]21)C3(C)C [compound 2, DT]",all other recombinant enzymes exhibited acetylation activity against 10-DAB and DT,all other recombinant enzymes exhibited acetylation activity against 10-DAB and DT,all other recombinant enzymes exhibited acetylation activity against 10-DAB and DT,the DBATs of T. cuspidata and T. brevifolia showed the highest specific activities,,,
"CC(=O)O[C@@]12CO[C@@H]1C[C@H](O)[C@@]1(C)C(=O)[C@H](O)C3=C(C)[C@@H](O)C[C@@](O)([C@@H](OC(=O)c4ccccc4)[C@H]21)C3(C)C [compound 1, 10-DAB]",,,,,T. x media origins showed similar conversion rates for 10-DAB,all other recombinant enzymes exhibited acetylation activity against 10-DAB and DT,all other recombinant enzymes exhibited acetylation activity against 10-DAB and DT
